Source: article PMC11514289 (Nature Communications, 2024)

Legend:
SaSir2-HerA = target: T1, SaSir2-HerA (Staphylococcus aureus, UniProt C1PH93); assay: biolayer interferometry, protein captured on Ni-NTA sensor; assay type: binding
T1 sequence (C1PH93 1-428): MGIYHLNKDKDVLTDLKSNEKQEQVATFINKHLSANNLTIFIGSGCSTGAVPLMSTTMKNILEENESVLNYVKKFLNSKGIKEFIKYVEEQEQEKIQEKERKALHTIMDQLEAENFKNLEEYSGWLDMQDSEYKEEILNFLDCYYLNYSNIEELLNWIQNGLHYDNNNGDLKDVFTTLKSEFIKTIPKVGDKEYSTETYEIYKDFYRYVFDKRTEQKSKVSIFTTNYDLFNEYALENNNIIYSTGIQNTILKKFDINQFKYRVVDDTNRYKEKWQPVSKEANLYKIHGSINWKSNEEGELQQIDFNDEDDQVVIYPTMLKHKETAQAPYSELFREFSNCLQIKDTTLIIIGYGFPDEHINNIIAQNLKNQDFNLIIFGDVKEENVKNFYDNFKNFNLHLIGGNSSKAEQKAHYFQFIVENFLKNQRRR
T1 sequence (C1PH94 1-562 partner): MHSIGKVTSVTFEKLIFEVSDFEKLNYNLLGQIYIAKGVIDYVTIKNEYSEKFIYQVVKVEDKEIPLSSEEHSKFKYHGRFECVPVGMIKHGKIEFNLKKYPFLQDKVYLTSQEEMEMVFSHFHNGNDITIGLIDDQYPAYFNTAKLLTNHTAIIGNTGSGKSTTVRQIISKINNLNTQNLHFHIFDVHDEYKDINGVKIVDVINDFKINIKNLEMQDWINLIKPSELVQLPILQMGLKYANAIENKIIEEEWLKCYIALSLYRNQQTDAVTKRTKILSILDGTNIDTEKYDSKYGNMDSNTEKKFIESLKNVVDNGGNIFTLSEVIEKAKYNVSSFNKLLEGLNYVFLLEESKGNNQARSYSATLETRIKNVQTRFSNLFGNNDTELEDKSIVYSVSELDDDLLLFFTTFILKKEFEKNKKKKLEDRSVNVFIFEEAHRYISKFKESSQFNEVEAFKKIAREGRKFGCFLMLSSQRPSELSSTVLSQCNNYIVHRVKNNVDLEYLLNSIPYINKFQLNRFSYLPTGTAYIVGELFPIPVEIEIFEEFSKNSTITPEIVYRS

[1] = target: SaSir2 (Sir2 of Staphylococcus aureus), 6x His-tagged, expressed alone (Staphylococcus aureus); assay: AUC

Molecule	Kd (SaSir2-HerA)	stoichiometry N [1]
NC(=O)c1ccc[n+]([C@@H]2O[C@H](COP(=O)(O)OP(=O)(O)OC[C@H]3O[C@@H](n4cnc5c(N)ncnc54)[C@H](O)[C@@H]3O)[C@@H](O)[C@H]2O)c1 [NAD^+]	4.39 µM	–
SaSir2 (Sir2 of Staphylococcus aureus), 6x His-tagged, expressed alone (enzyme)	–	2
